The subject of this assay is BDF1 mice, B16 melanoma ip, median survival T/C. The experiment in a line: NCI In Vivo Anticancer Drug Screen. Data for tumor model B16 Melanoma (intraperitoneal) in B6D2F1 (BDF1) mice. The conditions noted are these: endpoint: median survival time, schedule: Q01DX009 (ip), higher = longer survival. In short, it runs like this:
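Survival or tumor size is measured after treatment of tumor-bearing mice and normalised to the vehicle-treated control group.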

“And” between values parts separate entries of the source, which are not always exact repeats. Identical values can stand only once. Toxic doses and inconclusive results are not listed.

For the compound `C/C=C(\C)C(=O)O[C@@H]1c2cc3c(cc2-c2c(cc(OC)c(OC)c2OC)[C@@H]2C(=O)OC[C@@H]12)OCO3`, the T/C is 101 % of control (dose: 1.25 mg/kg/injection, vehicle: Klucel (hydroxypropylcellulose) (HPC)); 107 % of control (dose: 2.5 mg/kg/injection, vehicle: Klucel (hydroxypropylcellulose) (HPC)); 92 % of control (dose: 5.0 mg/kg/injection, vehicle: Klucel (hydroxypropylcellulose) (HPC)); 96 % of control (dose: 10.0 mg/kg/injection, vehicle: Klucel (hydroxypropylcellulose) (HPC)).

Regarding `COC(=O)[C@@]12OC[C@]34[C@H]([C@@H](O)[C@@H]1O)[C@@]1(C)CC(=O)C(O)=C(C)[C@@H]1C[C@H]3OC(=O)[C@H](OC(=O)/C=C(\C)C(C)C)[C@@H]24`, the T/C reads like this: (dose: 0.03 mg/kg/injection, vehicle: saline + alcohol) 122 % of control; (dose: 0.12 mg/kg/injection, vehicle: other) 169 % of control; (dose: 0.12 mg/kg/injection, vehicle: saline + alcohol) 153 % of control; (dose: 0.25 mg/kg/injection, vehicle: other) 155 % of control; (dose: 0.25 mg/kg/injection, vehicle: saline + alcohol) 154 % of control; (dose: 0.5 mg/kg/injection, vehicle: other) 160 % of control. Also, the T/C (dose: 0.5 mg/kg/injection, vehicle: saline + alcohol) was 154 % of control and 157 % of control; the T/C (dose: 1.0 mg/kg/injection, vehicle: other) was 164 % of control; the T/C (dose: 1.0 mg/kg/injection, vehicle: saline + alcohol) was 158 % of control and 164 % of control; the T/C (dose: 2.0 mg/kg/injection, vehicle: saline + alcohol) was 177 % of control; the T/C (dose: 125.0 micrograms/kg/injection, vehicle: saline + alcohol) is 160 % of control; the T/C (dose: 250.0 micrograms/kg/injection, vehicle: saline + alcohol) was 160 % of control. Further, the T/C is, setting by setting: (dose: 500.0 micrograms/kg/injection, vehicle: saline + alcohol) 168 % of control; (dose: 1000.0 micrograms/kg/injection, vehicle: saline + alcohol) 164 % of control; (dose: 2000.0 micrograms/kg/injection, vehicle: saline + alcohol) 97 % of control.

In the case of `CC(=O)[C@H]1CC[C@H]2[C@@H]3C[C@H](C)C4=CC(=O)CC[C@]4(C)[C@H]3C(=O)C[C@]12C`, the T/C was 107 % of control (dose: 100.0 mg/kg/injection, vehicle: Klucel (hydroxypropylcellulose) (HPC)); 92 % of control (dose: 200.0 mg/kg/injection, vehicle: Klucel (hydroxypropylcellulose) (HPC)); 94 % of control (dose: 400.0 mg/kg/injection, vehicle: Klucel (hydroxypropylcellulose) (HPC)).

Source of the values: PubChem BioAssay AID192 (DTP/NCI, 2004).
